Assay [1] has as its system Hep3B-OS8-hPDL1 and T cells. Nature of the assay: Hep3B-OS8-hPDL1 and T Cells Co-Culture Assay (IFN-γ by ELISA). The assay is classed as cell-based. To be noted: T-cell, Hep3B-OS8-hPDL1 and human CD3+ T cells, 72 hours, read-out: Tumor and T Cell EC50. Here is the method:
Example 110. Hep3B-OS8-hPDL1 and T Cells Co-Culture Assay
1. Hep3B-OS8-hPDL1 cells were cultured in 1640 medium supplemented with 10% fetal bovine serum, 1% penicillin and streptomycin, in which 100 μg/mL G418 and Hygromycin B were also added.
2. Hep3B-OS8-hPDL1 cells were harvested and treated with 10 μg/mL mitomycin C at 37° C. for 1.5 h, and the cells were then washed thoroughly with PBS for four times.
3. Cells were re-suspended with RPMI 1640 medium containing 10% FBS and the cell density was adjusted to 5×10^5 cells/mL.
4. Cells were seeded into 96-well flat bottom plate (2.5×10^4 cells/50 μL/well).
b. CD3+ T cells isolation (30 mL blood)
5. The human blood sample from an individual donor was diluted by the same volume of sterile PBS, for instance add 25 mL sterile PBS into 25 mL fresh whole blood and mix sufficiently by gentle shake.
6. Transferred 15 mL Lymphoprep medium into a new 50 mL centrifuge tube.
7. Added the diluted blood sample as soft as possible onto the surface of the Ficoll medium to make sure there is a clear dividing line between the two liquids, and the volume ratio between Ficoll and diluted blood (30 mL) is 1:2.
8. Moved the tube gently to centrifuge, at 1000×g, 25 min, 20° C., with the acceleration (5) and Min deceleration (0) settings during the centrifugation.
9. Four interfaces in all could be observed after the centrifugation, which are layers of plasma, mononuclear cells, the Ficoll medium and RBCs from top to bottom, and move the tube as gently as possible so as keep the four interfaces separated. Absorbed and transferred the second layer of mononuclear cells into another new sterile centrifuge tube carefully, and absorbed certain volume of plasma instead of the Ficoll medium if inevitable.
10. Added sterile PBS of the three times the volume of PBMCs in the tube with PBMC.
11. Washed the cells twice with 5-10 mL PBS before cell counting with cytometer. Centrifuge at 350×g, 10 min, 20° C. With the acceleration (5) and deceleration (5) settings during the centrifugation.
12. Resuspended the cells with recommended medium and adjust the density of the PBMCs to the final concentration of 5×10^7 cells/mL.
13. Isolated CD3+ T cells with EasySep™ Human T Cell Isolation Kit (STEMCELL Technologies #17951), and the cells were seeded into 96-well flat bottom plate (5×10^4 cells/100 μL/well). c. Compounds solutions preparation
14. Prepared the Compounds dilutions in RPMI 1640 medium with 10% FBS according to the Layout. 15. Added compounds into each well in a volume of 50 μL. {3 compounds (GLC01-258, GLC01-269, GLC01-465) in 7 concentrations (0.03, 0.1, 0.3, 1, 3, 10 and 30 μM) and 6 compounds (GLC01-411, GLC01-292, GLC01-445, GLC01-475, GLC01-470 and GLC01-468) in the same concentration (1 μM)}.
16. Keytruda was included as positive control, the concentration was 5 μg/mL. 17. Incubated for 72 hours at 37° C., 5% CO2.
18. Collected supernatant by centrifugation and measure IFN-γ by ELISA.

For assay [2], the target named is T1, PD-1/PD-L1 (Homo sapiens, UniProt Q9NZQ7).
T1 construct: Recombinant human PD-L1 protein (19-238) with a Histag at the C-terminus; purchased AcroBiosystems PD1-H5229 (PD-L1); PD1-H5257 (PD-1)
The assay is described as follows: PD-1/PD-L1 Homogeneous Time-Resolved Fluorescence (HTRF) Binding Assay. To be noted: PD-1/PD-L1 HTRF activity; 3 nM PD1, 10 nM PD-L1, 25° C. The method in brief:
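Human PD-L1 (19-238, His-tag) 10 nM and PD-1 (25-167, Fc-tag) 3 nM preincubated 40 min with inhibitor in PBS pH 7.4, 0.05% Tween-20, 0.1% BSA, 1% DMSO, 25 °C. Eu-anti-human IgG (1 nM) and anti-His-APC (20 nM) added, 60 min, 665/620 nm ratio; IC50 from percent control activity versus log concentration.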
(TR-FRET usually uses a lanthanide donor and a delayed reading to cut background.)

The target of assay [3] is T2, extracellular domains of PD-L1 (Homo sapiens, UniProt Q9NZQ7).
T2 construct: specifically dimerize the extracellular domains of PD-L1
Nature of the assay: PD-L1 Dimerization. In kind it is biochemical. Conditions: PD-L1-Eu and PD-L1-A2, ratio 665 nm/615 nm. As for the experimental part:
Example 108. PD-L1 Dimerization
Compounds were tested in biochemical protein-protein interaction assays to determine if they can specifically dimerize the extracellular domains of PD-L1. • (1) Diluted cpd 1:3 in succession in DMSO for each column for 10 samples • (2) Transferred 0.2 μL cpds solution in each row to 384 assay plate using Echo, each column containing 2 replicates • (3) Added 20 μL prepared mixture include PD-L1-Eu and PD-L1-A2 solution to assay plate, centrifuged at 1000 rpm for 1 min. • (4) Incubated at 25° C. for […]. • (5) Read fluorescence signal on Envision 2104 plate reader. • (6) Read the Ratio (665 nm/615 nm) signal on Envision. • (7) Analyzed the raw data using the equation (V. Data analysis)

Structures can show the parent of a compound that is named as a salt. Bounds are passed on as bounds.

T2 sequence (Q9NZQ7 19-238 limits assumed): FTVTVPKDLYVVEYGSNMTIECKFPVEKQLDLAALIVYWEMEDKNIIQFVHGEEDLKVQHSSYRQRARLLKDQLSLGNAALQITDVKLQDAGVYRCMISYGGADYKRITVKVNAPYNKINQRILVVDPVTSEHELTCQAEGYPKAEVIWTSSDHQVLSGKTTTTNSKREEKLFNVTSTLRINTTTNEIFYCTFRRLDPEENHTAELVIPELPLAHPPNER
T1 sequence (Q9NZQ7 19-238): as the sequence (Q9NZQ7 19-238 limits assumed) above

Take `Cc1cn2cc(-c3cccc(-c4cccc(-c5cc6c(=O)n(CCN[C@@H](CO)C(=O)O)c(C)cn6c5)c4Cl)c3Cl)cc2c(=O)n1CCN[C@@H](CO)C(=O)O` [Compound 63, (2S,2'S)-2,2′-((((2,2′-dichloro-[1,1′-biphenyl]-3,3′-diyl)bis(3-methyl-1-oxopyrrolo[1,2-a]pyrazine-7,2(1H)-diyl))bis(ethane-2,1-diyl))bis(azanediyl))bis(3-hydroxypropanoic acid)]: the half-maximal effective concentration (EC50) – broadly, the concentration that produces a half-maximal response – in assay [1] is not below 100 nM; in assay [3], 50 to 100 nM. Besides, the IC50 (in general, the concentration at which inhibition is half-maximal) in assay [2] is less than 10 nM.
`Cc1cn2nc(-c3cccc(-c4cccc(-c5cc6c(=O)n(CCNCCO)c(C)cn6n5)c4Cl)c3Cl)cc2c(=O)n1CCNCCO` [Compound 52, 2,2′-(2,2′-dichloro-[1,1′-biphenyl]-3,3′-diyl)bis(5-(2-((2-hydroxyethyl)amino)ethyl)-6-methylpyrazolo[1,5-a]pyrazin-4(5H)-one)]: the concentration giving a half-maximal response (EC50) was 50 to 100 nM in assay [1] and less than 50 nM in assay [3]. Moreover, in assay [2], the IC50 was less than 10 nM.
Take `Cc1cn2nc(-c3cccc(-c4cccc(-c5cc6c(=O)n(CCNC7(C(=O)O)CC(O)C7)c(C)cn6n5)c4Cl)c3Cl)cc2c(=O)n1CCNC1(C(=O)O)CC(O)C1` (stereo not drawn) [Compound 85]: the values for the EC50 in assay [1] and in assay [3] were less than 50 nM and 50 to 100 nM, respectively. The IC50 in assay [2] lay in the range of 10 to 100 nM.
Regarding `Cn1c(CN[C@@H](CO)C(=O)O)cn2nc(-c3cccc(-c4cccc(-c5cc6c(=O)n(C)c(CN[C@@H](CO)C(=O)O)cn6n5)c4Cl)c3Cl)cc2c1=O` [Compound 80, (2S,2'S)-2,2′-((((2,2′-dichloro-[1,1′-biphenyl]-3,3′-diyl)bis(5-methyl-4-oxo-4,5-dihydropyrazolo[1,5-a]pyrazine-2,6-diyl))bis(methylene))bis(azanediyl))bis(3-hydroxypropanoic acid)], the IC50 in assay [2] lay within 10 to 100 nM. The concentration giving a half-maximal response (EC50) in assay [3] was not below 100 nM.
`Cc1cn2nc(-c3cccc(-c4cccc(-c5cc6c(=O)n(CCN[C@]7(C(=O)O)C[C@@H](O)C7)c(C)cn6n5)c4Cl)c3Cl)cc2c(=O)n1CCN[C@]1(C(=O)O)C[C@@H](O)C1` [Compound 101, (1r,1′r,3r,3′r)-1,1′-((((2,2′-dichloro-[1,1′-biphenyl]-3,3′-diyl)bis(6-methyl-4-oxopyrazolo[1,5-a]pyrazine-2,5(4H)-diyl))bis(ethane-2,1-diyl))bis(azanediyl))bis(3-hydroxycyclobutane-1-carboxylic acid)] returned an IC50 in assay [2] of less than 10 nM. Further, in assay [3], the EC50 was less than 50 nM.
In the case of `Cc1cn2nc(-c3cccc(-c4cccc(-c5cc6c(=O)n(CCN7CC[C@H](C(=O)O)C7)c(C)cn6n5)c4Cl)c3Cl)cc2c(=O)n1CCN1CC[C@H](C(=O)O)C1` [Compound 47, (3S,3'S)-1,1′-(((2,2′-dichloro-[1,1′-biphenyl]-3,3′-diyl)bis(6-methyl-4-oxopyrazolo[1,5-a]pyrazine-2,5(4H)-diyl))bis(ethane-2,1-diyl))bis(pyrrolidine-3-carboxylic acid)], the EC50 in assay [1] is not below 100 nM; in assay [3], 50 to 100 nM. In addition, in assay [2], the half-maximal inhibitory concentration (IC50) was less than 10 nM.
`Cc1cn2nc(-c3cccc(-c4cccc(-c5cc6c(=O)n(CCN[C@](C)(CO)C(=O)O)c(C)cn6n5)c4Cl)c3Cl)cc2c(=O)n1CCN[C@](C)(CO)C(=O)O` [Compound 96, (2R,2′R)-2,2′-((((2,2′-dichloro-[1,1′-biphenyl]-3,3′-diyl)bis(6-methyl-4-oxopyrazolo[1,5-a]pyrazine-2,5(4H)-diyl))bis(ethane-2,1-diyl))bis(azanediyl))bis(3-hydroxy-2-methylpropanoic acid)] returned a half-maximal inhibitory concentration (IC50) in assay [2] of 10 to 100 nM. Moreover, the EC50 in assay [3] was not below 100 nM.
For `Cn1c(C[C@@H]2CCCN2)nn2cc(-c3cccc(-c4cccc(-c5cc6c(=O)n(C)c(C[C@@H]7CCCN7)nn6c5)c4Cl)c3Cl)cc2c1=O` [Compound 76, 6,6′-(2,2′-dichloro-[1,1′-biphenyl]-3,3′-diyl)bis(3-methyl-2-(((S)-pyrrolidin-2-yl)methyl)pyrrolo[2,1-f][1,2,4]triazin-4(3H)-one)], the EC50 in assay [1] was 50 to 100 nM; in assay [3] it was less than 50 nM. In addition, the IC50 in assay [2] lay in the range of 10 to 100 nM.
As to `Cc1cn2nc(-c3cccc(-c4cccc(-c5cc6c(=O)n(C[C@@H]7CCCN7)c(C)cn6n5)c4Cl)c3Cl)cc2c(=O)n1C[C@@H]1CCCN1` [Compound 36, 2,2′-(2,2′-dichloro-[1,1′-biphenyl]-3,3′-diyl)bis(6-methyl-5-(((S)-pyrrolidin-2-yl)methyl)pyrazolo[1,5-a]pyrazin-4(5H)-one) dihydrochloride], the concentration giving a half-maximal response (EC50) in assay [1] and in assay [3] was less than 50 nM each time. In addition, the IC50 in assay [2] was less than 10 nM.
In the case of `Cc1cn2cc(-c3cccc(-c4cccc(-c5cc6c(=O)n(CCNCCO)c(C)cn6c5)c4Cl)c3Cl)cc2c(=O)n1CCNCCO` [Compound 51, 7,7′-(2,2′-dichloro-[1,1′-biphenyl]-3,3′-diyl)bis(2-(2-((2-hydroxyethyl)amino)ethyl)-3-methylpyrrolo[1,2-a]pyrazin-1(2H)-one)], the EC50 in assay [1] and in assay [3] was 50 to 100 nM each time. The compound further returned a half-inhibitory concentration (IC50) in assay [2] of less than 10 nM.
In the case of `Cc1cn2nc(-c3cccc(-c4cccc(-c5cc6c(=O)n(CCN[C@@](C)(CO)C(=O)O)c(C)cn6n5)c4Cl)c3Cl)cc2c(=O)n1CCN[C@@](C)(CO)C(=O)O` [Compound 95, (2S,2'S)-2,2′-((((2,2′-dichloro-[1,1′-biphenyl]-3,3′-diyl)bis(6-methyl-4-oxopyrazolo[1,5-a]pyrazine-2,5(4H)-diyl))bis(ethane-2,1-diyl))bis(azanediyl))bis(3-hydroxy-2-methylpropanoic acid)], the IC50 in assay [2] is 10 to 100 nM. Further, the EC50 in assay [3] is not below 100 nM.
As to `Cc1cn2nc(-c3cccc(-c4cccc(-c5cc6c(=O)n(CCN7CC[C@H](O)[C@H]7C(=O)O)c(C)cn6n5)c4Cl)c3Cl)cc2c(=O)n1CCN1CC[C@H](O)[C@H]1C(=O)O` [Compound 89, (2S,2'S,3S,3'S)-1,1′-(((2,2′-dichloro-[1,1′-biphenyl]-3,3′-diyl)bis(6-methyl-4-oxopyrazolo[1,5-a]pyrazine-2,5(4H)-diyl))bis(ethane-2,1-diyl))bis(3-hydroxypyrrolidine-2-carboxylic acid)], the half-maximal effective concentration (EC50) in assay [1] was less than 50 nM. In addition, the IC50 in assay [2] lay in the range of 10 to 100 nM.
Consider `Cc1cn2cc(-c3cccc(-c4cccc(-c5cc6c(=O)n(CCN7CC[C@H](C(=O)O)C7)c(C)cn6c5)c4Cl)c3Cl)cc2c(=O)n1CCN1CC[C@H](C(=O)O)C1` [Compound 53, (3S,3'S)-1,1′-(((2,2′-dichloro-[1,1′-biphenyl]-3,3′-diyl)bis(3-methyl-1-oxopyrrolo[1,2-a]pyrazine-7,2(1H)-diyl))bis(ethane-2,1-diyl))bis(pyrrolidine-3-carboxylic acid)], for which the concentration for a half-maximal effect (EC50) in assay [1] is not below 100 nM. Further, the 50% inhibitory concentration (IC50) in assay [2] was less than 10 nM.

For the origin of these results see patent US20260248783A1 (ASCLETIS BIOSCIENCE CO., LTD., priority 2021, published 2026).
